# Assay results reported in patent publication US8889666B2, “Quinolyl pyrrolo pyrimidyl condensed-ring compound and salt thereof” (Taiho Pharmaceutical Co., Ltd., priority 2012, dated 2014).
# Experiments:
# Type in all cases: biochemical
# EGFR (WT) = target: T1, EGFR (WT) (Homo sapiens, UniProt P00533); assay: EGFR (WT) kinase inhibitory activity (in vitro); conditions: for IC50: cytoplasmic domain of human EGFR (WT), ATP 4.7 μM, substrate peptide 500 nM; for inhibitory activities for EGFR (WT) compared with the mutant EGFR proteins, in words: summary of Table 1
# T1 construct: the cytoplasmic domain of human EGFR (WT); FLAG (N); made in house; host or cells: baculovirus expression system, insect Sf9 cells
# T1 sequence (P00533 669-1210 limits assumed): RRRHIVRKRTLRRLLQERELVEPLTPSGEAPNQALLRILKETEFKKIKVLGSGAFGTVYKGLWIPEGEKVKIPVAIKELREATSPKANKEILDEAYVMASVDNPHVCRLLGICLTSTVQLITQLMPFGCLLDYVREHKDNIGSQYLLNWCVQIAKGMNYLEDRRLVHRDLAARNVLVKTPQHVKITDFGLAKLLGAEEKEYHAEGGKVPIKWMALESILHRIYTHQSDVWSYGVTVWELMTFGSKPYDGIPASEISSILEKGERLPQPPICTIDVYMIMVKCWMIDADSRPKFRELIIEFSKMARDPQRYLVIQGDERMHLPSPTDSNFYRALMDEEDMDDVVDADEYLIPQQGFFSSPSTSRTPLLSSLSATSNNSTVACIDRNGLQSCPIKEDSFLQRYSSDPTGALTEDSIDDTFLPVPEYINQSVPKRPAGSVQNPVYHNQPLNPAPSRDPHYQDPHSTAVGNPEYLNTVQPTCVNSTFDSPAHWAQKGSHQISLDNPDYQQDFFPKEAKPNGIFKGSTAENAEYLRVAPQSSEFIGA
# Method: (§1) The measurement method was as follows. The compounds I-1, I-2, I-3, I-4, I-5, I-6, I-7, I-8, and I-9 were each dissolved in dimethylsulfoxide (DMSO), and then each serially diluted with DMSO. Next, the EGFR (T790M/L858R) protein, substrate peptide (final concentration: 250 nM), magnesium chloride (final concentration: 10 mM), manganese chloride (final concentration: 10 mM), ATP (final concentration: 1 μM), and the diluted DMSO solution of each compound (final concentration of DMSO: 2.5%) were added to a kinase reaction buffer (Carna Biosciences, Inc.), and the mixture was incubated at 25° C. for 120 minutes for kinase reaction. EDTA was added thereto to a final concentration of 24 mM to thereby terminate the reaction. Then, a detection solution containing europium (Eu)-labeled anti-phosphorylated tyrosine antibody PT66 (PerkinElmer) and SureLight APC-SA (PerkinElmer) was added, and the resulting mixture was allowed to stand at room temperature for 2 hours or more. Finally, the intensity of fluorescence under the excitation light with a wavelength of 337 nm was measured by a PHERAstar FS (BMG LABTECH) at two wavelengths of 620 nm and 665 nm. The level of phosphorylation of each test sample was calculated from the fluorescence intensity ratio of the two wavelengths in DMSO control and in the test sample, and the compound concentration at which phosphorylation was inhibited by 50% was determined as the IC50 value (nM) of each compound.
# The inhibitory activities of the compounds I-1, I-2, I-3, I-4, I-5, I-6, I-7, I-8, and I-9 on EGFR (WT) kinase were measured.
# The materials were as follows. As the EGFR (WT), the cytoplasmic domain of human EGFR (WT) in which a FLAG tag was fused to the N-terminus was expressed in a baculovirus expression system using insect Sf9 cells, and purified with anti-FLAG antibody agarose (Sigma-Aldrich). The final concentration of the substrate peptide was 500 nM, and the final concentration of ATP was 4.7 μM. As for other conditions, the same materials and methods as those used in the measurement of EGFR (T790M/L858R) kinase inhibitory activity were used to determine the IC50 value (nM) of each compound.
# EGFR (T790M/L858R) = target: T2, EGFR (T790M/L858R) (Homo sapiens, UniProt P00533, L858R/T790M); assay: EGFR (T790M/L858R) kinase inhibitory activity (in vitro); conditions: for IC50: recombinant human protein, ATP 1 μM, 120 minutes; for inhibitory activities for EGFR (L858R), EGFR (d746-750), EGFR (T790M/L858R) and EGFR (d746-750/T790M), in words: summary of Table 1, all four mutant kinases
# T2 construct: purchased Carna Biosciences, Inc
# T2 sequence (P00533 25-1210 T790M/L858R): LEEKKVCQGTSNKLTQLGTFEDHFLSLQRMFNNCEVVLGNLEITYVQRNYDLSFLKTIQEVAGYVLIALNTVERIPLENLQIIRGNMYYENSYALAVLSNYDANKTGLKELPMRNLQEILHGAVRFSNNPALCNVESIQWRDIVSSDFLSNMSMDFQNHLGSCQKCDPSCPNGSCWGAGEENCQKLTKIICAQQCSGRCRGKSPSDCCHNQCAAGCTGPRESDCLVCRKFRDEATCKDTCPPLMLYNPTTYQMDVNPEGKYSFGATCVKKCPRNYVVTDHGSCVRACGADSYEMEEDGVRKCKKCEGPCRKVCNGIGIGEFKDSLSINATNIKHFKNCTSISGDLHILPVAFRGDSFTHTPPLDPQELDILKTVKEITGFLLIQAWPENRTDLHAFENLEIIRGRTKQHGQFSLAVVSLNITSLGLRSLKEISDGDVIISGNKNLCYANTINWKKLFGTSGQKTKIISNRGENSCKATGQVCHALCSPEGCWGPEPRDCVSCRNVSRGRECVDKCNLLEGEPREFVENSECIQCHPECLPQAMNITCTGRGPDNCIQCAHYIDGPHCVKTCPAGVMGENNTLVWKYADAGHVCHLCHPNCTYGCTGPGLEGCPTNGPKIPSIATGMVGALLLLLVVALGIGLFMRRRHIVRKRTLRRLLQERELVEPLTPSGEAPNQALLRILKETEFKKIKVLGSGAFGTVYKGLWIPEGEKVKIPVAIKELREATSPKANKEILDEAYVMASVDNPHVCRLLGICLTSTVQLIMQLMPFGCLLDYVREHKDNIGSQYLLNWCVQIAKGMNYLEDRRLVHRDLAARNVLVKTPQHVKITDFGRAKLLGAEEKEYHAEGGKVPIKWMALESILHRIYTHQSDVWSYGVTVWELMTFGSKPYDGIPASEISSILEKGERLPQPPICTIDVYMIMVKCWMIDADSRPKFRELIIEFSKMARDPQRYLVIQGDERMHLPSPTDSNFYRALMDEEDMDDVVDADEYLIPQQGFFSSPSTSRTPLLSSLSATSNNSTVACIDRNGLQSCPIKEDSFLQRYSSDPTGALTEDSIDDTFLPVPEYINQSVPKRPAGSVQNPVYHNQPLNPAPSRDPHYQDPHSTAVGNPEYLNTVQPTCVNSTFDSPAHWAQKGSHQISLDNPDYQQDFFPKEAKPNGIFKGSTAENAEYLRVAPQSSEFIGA
# Method: 1) Measurement of EGFR (T790M/L858R) Kinase Inhibitory Activity
# The inhibitory activities of the compounds I-1, I-2, I-3, I-4, I-5, I-6, I-7, I-8, and I-9 for EGFR (T790M/L858R) kinase were measured.
# The materials were as follows. The substrate peptide was a biotinylated peptide (biotin-EEPLYWSFPAKKK) synthesized by reference to the amino acid sequence of FL-Peptide 22 (a reagent for LabChip® Series; Caliper Life Sciences, Inc.). The EGFR (T790M/L858R) was a purified recombinant human EGFR (T790M/L858R) protein purchased from Carna Biosciences, Inc.
# as §1
# EGFR (d746-750) = target: T3, EGFR (d746-750) (Homo sapiens, UniProt P00533, DEL746-750); assay: EGFR (d746-750) kinase inhibitory activity (in vitro); conditions: recombinant human protein, ATP 5 μM, 90 minutes
# T3 construct: purchased Carna Biosciences, Inc
# T3 sequence (P00533 with tags, fused parts or gaps DEL746-750 limits assumed): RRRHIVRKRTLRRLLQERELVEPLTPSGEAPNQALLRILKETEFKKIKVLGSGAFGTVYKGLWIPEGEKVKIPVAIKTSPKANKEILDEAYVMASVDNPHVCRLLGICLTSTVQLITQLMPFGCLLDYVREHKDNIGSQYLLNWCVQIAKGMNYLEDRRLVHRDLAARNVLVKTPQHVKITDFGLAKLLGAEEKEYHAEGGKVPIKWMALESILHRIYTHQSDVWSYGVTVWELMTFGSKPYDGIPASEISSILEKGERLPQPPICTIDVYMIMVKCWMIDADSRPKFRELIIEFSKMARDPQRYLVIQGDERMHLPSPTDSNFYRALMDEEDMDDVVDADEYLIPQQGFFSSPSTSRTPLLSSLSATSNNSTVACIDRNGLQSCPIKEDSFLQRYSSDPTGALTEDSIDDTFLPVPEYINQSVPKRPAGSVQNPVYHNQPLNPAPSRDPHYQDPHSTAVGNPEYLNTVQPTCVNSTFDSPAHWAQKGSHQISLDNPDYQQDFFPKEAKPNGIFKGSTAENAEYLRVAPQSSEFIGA
# Method: as §1
# 4) Measurement of EGFR (d746-750) Kinase Inhibitory Activity
# The inhibitory activities of the compounds I-1, I-2, I-3, I-4, I-5, I-6, I-7, I-8, and I-9 for EGFR (d746-750) kinase activity were measured.
# (§2) The materials were as follows. The EGFR (d746-750) was a purified recombinant human EGFR (d746-750) protein purchased from Carna Biosciences, Inc. The final concentration of ATP was 5 μM. The incubation time for the kinase reaction was 90 minutes. As for other conditions, the same materials and methods as those used in the measurement of EGFR (T790M/L858R) kinase inhibitory activity were used to determine the IC50 value (nM) of each compound.
# EGFR (L858R) = target: T4, EGFR (L858R) (Homo sapiens, UniProt P00533, L858R); assay: EGFR (L858R) kinase inhibitory activity (in vitro); conditions: recombinant human protein, ATP 4 μM
# T4 construct: purchased Carna Biosciences, Inc
# T4 sequence (P00533 25-1210 L858R): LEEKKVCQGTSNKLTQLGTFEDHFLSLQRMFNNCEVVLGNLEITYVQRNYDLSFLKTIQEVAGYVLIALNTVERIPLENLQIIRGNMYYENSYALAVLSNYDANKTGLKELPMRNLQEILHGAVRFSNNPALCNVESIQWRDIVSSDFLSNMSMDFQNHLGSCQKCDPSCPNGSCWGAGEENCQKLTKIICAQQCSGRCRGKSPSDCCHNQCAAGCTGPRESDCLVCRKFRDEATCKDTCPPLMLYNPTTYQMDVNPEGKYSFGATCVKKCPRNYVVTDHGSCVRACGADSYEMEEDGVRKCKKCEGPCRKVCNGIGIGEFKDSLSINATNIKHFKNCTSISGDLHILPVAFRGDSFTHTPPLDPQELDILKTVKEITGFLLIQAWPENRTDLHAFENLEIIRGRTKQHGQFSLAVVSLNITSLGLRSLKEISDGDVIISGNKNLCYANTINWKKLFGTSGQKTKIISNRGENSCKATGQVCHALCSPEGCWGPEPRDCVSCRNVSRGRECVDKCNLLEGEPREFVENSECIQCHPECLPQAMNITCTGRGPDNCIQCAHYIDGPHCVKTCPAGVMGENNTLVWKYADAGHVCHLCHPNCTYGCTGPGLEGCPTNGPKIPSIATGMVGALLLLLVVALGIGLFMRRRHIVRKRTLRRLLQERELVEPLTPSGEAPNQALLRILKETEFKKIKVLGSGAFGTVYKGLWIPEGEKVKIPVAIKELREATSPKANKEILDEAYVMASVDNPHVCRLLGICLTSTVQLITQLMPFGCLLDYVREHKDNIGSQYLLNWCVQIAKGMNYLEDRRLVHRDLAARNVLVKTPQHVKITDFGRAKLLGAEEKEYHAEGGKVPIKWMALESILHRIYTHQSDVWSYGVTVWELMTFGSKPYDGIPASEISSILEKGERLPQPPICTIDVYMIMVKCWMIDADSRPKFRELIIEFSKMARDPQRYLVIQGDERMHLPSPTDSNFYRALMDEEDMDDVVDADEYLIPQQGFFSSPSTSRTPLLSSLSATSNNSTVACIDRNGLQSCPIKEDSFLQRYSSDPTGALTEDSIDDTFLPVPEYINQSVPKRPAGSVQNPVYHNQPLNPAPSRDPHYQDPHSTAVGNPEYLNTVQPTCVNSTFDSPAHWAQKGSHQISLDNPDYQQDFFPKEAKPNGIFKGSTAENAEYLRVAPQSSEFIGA
# Method: as §1
# 3) Measurement of EGFR (L858R) Kinase Inhibitory Activity
# The inhibitory activities of the compounds I-1, I-2, I-3, I-4, I-5, I-6, I-7, I-8, and I-9 for EGFR (L858R) kinase were measured.
# as §2, with “EGFR (L858R)” for “EGFR (d746-750)”, “was 4” for “was 5”, “μM.” for “μM. The incubation time for the kinase reaction was 90 minutes.”
# EGFR (d746-750/T790M) = target: T5, EGFR (d746-750/T790M) (Homo sapiens, UniProt P00533, DEL746-750/T790M); assay: EGFR (d746-750/T790M) kinase inhibitory activity (in vitro); conditions: recombinant human protein, ATP 1.5 μM
# T5 construct: purchased Carna Biosciences, Inc
# T5 sequence (P00533 with tags, fused parts or gaps DEL746-750/T790M limits assumed): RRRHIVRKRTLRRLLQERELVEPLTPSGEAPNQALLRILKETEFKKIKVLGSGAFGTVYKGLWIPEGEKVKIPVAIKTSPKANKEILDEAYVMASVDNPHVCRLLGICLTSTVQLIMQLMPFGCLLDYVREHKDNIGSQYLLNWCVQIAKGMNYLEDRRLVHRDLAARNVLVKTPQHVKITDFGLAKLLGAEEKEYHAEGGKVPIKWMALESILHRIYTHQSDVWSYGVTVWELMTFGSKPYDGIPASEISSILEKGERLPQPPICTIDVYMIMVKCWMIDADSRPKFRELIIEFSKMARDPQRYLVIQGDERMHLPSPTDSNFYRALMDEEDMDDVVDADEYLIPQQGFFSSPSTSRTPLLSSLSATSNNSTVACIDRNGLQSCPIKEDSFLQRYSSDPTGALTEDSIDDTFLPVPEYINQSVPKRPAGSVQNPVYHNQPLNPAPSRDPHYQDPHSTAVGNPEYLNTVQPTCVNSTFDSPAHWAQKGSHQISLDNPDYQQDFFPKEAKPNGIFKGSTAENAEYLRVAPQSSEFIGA
# Method: as §1
# 2) Measurement of EGFR (d746-750/T790M) Kinase Inhibitory Activity
# The inhibitory activities of the compounds I-1, I-2, I-3, I-4, I-5, I-6, I-7, I-8, and I-9 for EGFR (d746-750/T790M) kinase were measured.
# as §2, with “EGFR (d746-750/T790M)” for “EGFR (d746-750)”, “was 1.5” for “was 5”, “μM.” for “μM. The incubation time for the kinase reaction was 90 minutes.”
IC50 (EGFR (WT)),IC50 (EGFR (T790M/L858R)),"inhibitory activities for EGFR (L858R), EGFR (d746-750), EGFR (T790M/L858R) and EGFR (d746-750/T790M), in words (EGFR (T790M/L858R))",IC50 (EGFR (d746-750)),IC50 (EGFR (L858R)),IC50 (EGFR (d746-750/T790M)),"inhibitory activity for these EGFR kinases, in words (EGFR (T790M/L858R); all EGFR kinases of Test Example 1)",SMILES,"inhibitory activities for EGFR (WT) compared with the mutant EGFR proteins, in words (EGFR (WT))"
33 nM,1.4 nM,potent inhibitory activities,1.8 nM,2.9 nM,0.5 nM,,"C=CC(=O)N[C@H]1CCc2c(-c3cnc4ccccc4c3)c3c(N)ncnc3n2CC1 [Compound I-7, (S)-N-(4-amino-5-(quinolin-3-yl)-7,8,9,10-tetrahydro-6H-pyrimido[5′,4′:4,5]pyrrolo[1,2-a]azepin-8-yl)acrylamide]",lower than those for the above mutant EGFR proteins
120 nM,6.7 nM,potent inhibitory activities,10 nM,12 nM,4.1 nM,,"CN(C)C/C=C/C(=O)NC1CCc2c(-c3cnc4ccccc4c3)c3c(N)ncnc3n2C1 (stereo not shown) [Compound I-4, (E)-N-(4-amino-5-(quinolin-3-yl)-6,7,8,9-tetrahydropyrimido[5,4-b]indolizin-8-yl)-4-(dimethylamino)-2-butenamide]",lower than those for the above mutant EGFR proteins
490 nM,18 nM,potent inhibitory activities,20 nM,41 nM,13 nM,,"C=CC(=O)N[C@H]1CCCc2c(-c3cnc4ccccc4c3)c3c(N)ncnc3n2C1 [Compound I-8, (S)-N-(4-amino-5-(quinolin-3-yl)-7,8,9,10-tetrahydro-6H-pyrimido[5′,4′:4,5]pyrrolo[1,2-a]azepin-9-yl)acrylamide]",lower than those for the above mutant EGFR proteins
41 nM,1.2 nM,potent inhibitory activities,3.6 nM,2.9 nM,1.2 nM,,"Nc1ncnc2c1c(-c1cnc3ccccc3c1)c1n2C[C@@H](NC(=O)/C=C\Cl)CC1 [Compound I-6, (S,Z)—N-(4-amino-5-(quinolin-3-yl)-6,7,8,9-tetrahydropyrimido[5,4-b]indolizin-8-yl)-3-chloroacrylamide]",lower than those for the above mutant EGFR proteins
> 5000 nM,> 5000 nM,,1500 nM,> 5000 nM,> 5000 nM,almost no inhibitory activity,"Nc1ncnc2c1c(-c1cccc(NC(=O)c3ccccc3)c1)c1n2CCCC1 [Comp. Ex. 1, N-(3-(4-amino-6,7,8,9-tetrahydropyrimido[5,4-b]indolizin-5-yl)phenyl)benzamide, reference compound]",
170 nM,5.3 nM,potent inhibitory activities,13 nM,14 nM,2.8 nM,,"C=CC(=O)N[C@@H]1CCc2c(-c3cnc4ccccc4c3)c3c(N)ncnc3n2C1 (single isomer, unassigned) [Compound I-1]",lower than those for the above mutant EGFR proteins
5.9 nM,0.4 nM,potent inhibitory activities,0.5 nM,0.7 nM,0.3 nM,,"Nc1ncnc2c1c(-c1cnc3ccccc3c1)c1n2C[C@@H](NC(=O)/C=C/Cl)CC1 [Compound I-5, (S,E)-N-(4-amino-5-(quinolin-3-yl)-6,7,8,9-tetrahydropyrimido[5,4-b]indolizin-8-yl)-3-chloroacrylamide]",lower than those for the above mutant EGFR proteins
3600 nM,160 nM,potent inhibitory activities,270 nM,350 nM,82 nM,,"C=CC(=O)N[C@@H]1CCCc2c(-c3cnc4ccccc4c3)c3c(N)ncnc3n2C1 [Compound I-9, (R)-N-(4-amino-5-(quinolin-3-yl)-7,8,9,10-tetrahydro-6H-pyrimido[5′,4′:4,5]pyrrolo[1,2-a]azepin-9-yl)acrylamide]",lower than those for the above mutant EGFR proteins
